Results on five molecules are retold here after patent publication US4816447A, “Anti-viral guanine compounds” (priority 1984, dated 1989).

Broadly, the solubility is the concentration that dissolves in the medium under given conditions. Read a high solubility as much dissolved substance.

A short description of data set [1]: Genotoxicity. As to conditions: qualitative statement.
Data set [2] concerns Herpes simplex virus type I (HSV-1), strain Schooler. Briefly: Treatment of Herpes simplex virus infection in mice, repeat experiment (Table III). As to conditions: for Percent Survival: at 15 days. In kind it is in vivo, HSV-1; ICR/Ha mice. Here is the method:
Twenty gram ICR/Ha mice were injected intraperitoneally (ip) with 0.5 ml of a 10^-5 dilution of a stock preparation of Herpes simplex virus type I (HSV-1), strain Schooler. This virus challenge infected each animal with approximately 100 LD50. […] The placebo group was composed of 45 animals. All compounds were solubilized in physiological saline, pH 11.5.

Data set [3] has the same test system. Kind of data set: Treatment of Herpes simplex virus infection in mice, intraperitoneal HSV-1, subcutaneous treatment (Table II). In kind it is in vivo, HSV-1; ICR/Ha mice. The following applies: for Percent Survival: at 15 days.
Data set [4] deals with Herpes simplex virus type 1. Kind of data set: Tube dilution assay, viral cytopathology of HSV-1 in rabbit kidney cell cultures. As to conditions: Human alphaherpesvirus 1, in Oryctolagus cuniculus, read-out: Minimum Effective Concentration, Strain Schooler.
Data set [5] is described as follows: Comparative solubilities in pH 7.2 buffer at 25°. It is filed as physicochemical. The following applies: aqueous buffer; pH 7.2 phosphate buffer, 25°. Here is the method: Comparative Solubilities in pH 7.2 Buffer at 25°
Solubilities were determined by suspending an excess amount of the compound in approximately 0.15 molar phosphate buffer (pH 7.2) and shaking overnight in a water bath at 25° to give a saturated solution. The concentration of the compound in the filtered solution was calculated on the basis of spectrophotometric measurements, i.e. comparison of the ultraviolet absorbance at the λmax for the saturated solution with the absorbance value observed for a known concentration of the compound.

The subject of data set [6] is Herpes simplex virus type 2. Kind of data set: Tube dilution assay, viral cytopathology of HSV-2 in rabbit kidney cell cultures. As to conditions: Human alphaherpesvirus 2, in Oryctolagus cuniculus, read-out: Minimum Effective Concentration.
Data set [7] deals with guanosine monophosphate kinase and extract of HSV1-infected HeLa cells. In kind it is biochemical. The following applies: gmp kinase, 4 h. As for the experimental part: To the rest of the incubation mixtures were now added 0.04 units of guanosine monophosphate kinase and 20 μl of an extract of HSV1-infectedHeLa cells [The cells were infected with the virus at a multiplicity of 10 and harvested 8 hours later; they were suspended in a solution containing 0.35M KH2 PO4, pH 7.5, 0.5 mM dithiothreitol, 0.2% polyoxyethylene(9)octylphenol (Nonidet P-40), 14% glycerol at 50 mg/ml and after 30 minutes at 4° were centrifuged at […]; the supernatant liquid was the crude extract.] Incubation was continued at 30° for 4 more hours, after which samples were analyzed by HPLC and the amount of the triphosphate derivatives of each compound determined by integration of the area under the respective chromatographic peak.

Data set [8] addresses T1, guanosine monophosphate kinase from hog brain (Sus scrofa, UniProt P31006).
T1 sequence (P31006 1-198): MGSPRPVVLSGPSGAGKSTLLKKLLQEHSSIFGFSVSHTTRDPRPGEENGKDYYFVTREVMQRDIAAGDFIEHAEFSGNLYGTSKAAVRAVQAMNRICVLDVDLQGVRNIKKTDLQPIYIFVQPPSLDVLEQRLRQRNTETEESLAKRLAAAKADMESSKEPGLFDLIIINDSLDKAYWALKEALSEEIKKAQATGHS
Kind of data set: Kinetic parameters with purified guanosine monophosphate kinase. It is filed as biochemical. The following applies: for Vmax: 25°, pH 7.6.

Data set [9] deals with mycoplasmal growth. Briefly: Inhibition of mycoplasmal growth in chickens. It is filed as in vivo. The following applies: systemic, 875 μg/bird.
For data set [10], the system named is Recombinant 6-26. Briefly: Drug sensitivity of HSV-1/HSV-2 intertypic Recombinant 6-26. The following applies: Recombinant 6-26.
The test system of data set [11] is Recombinant 6-30. Briefly: Drug sensitivity of HSV-1/HSV-2 intertypic Recombinant 6-30. As to conditions: Recombinant 6-30.
The test system of data set [12] is Recombinant 6-34. Briefly: Drug sensitivity of HSV-1/HSV-2 intertypic Recombinant 6-34. The following applies: Recombinant 6-34.
In data set [13] the test system is HSV-1 PAA ®1. The following applies: HSV-1 PAA R1.
Data set [14] concerns HSV-2 TS6.
For data set [15], the system named is HSV-1 wild type Strain 17. Briefly: Drug sensitivity of HSV-1 wild type Strain 17. The following applies: HSV-1 wild type Strain 17.
The test system of data set [16] is Recombinant 6-19. Kind of data set: Drug sensitivity of HSV-1/HSV-2 intertypic Recombinant 6-19. The following applies: Recombinant 6-19.

Take `Nc1nc2c(ncn2COCC(O)CO)c(=O)[nH]1` (stereo not drawn) [Compound of Formula I, 9-(2,3-Dihydroxy-1-propoxymethyl)guanine]: in [1], the genotoxicity entry is given as “lack of genotoxicity”. Besides, the “Avg. Survival Time” value in data set [2] (3.1 mg/kg/day s.c.) was found to be 7.2 days; in data set [2] (12.5 mg/kg/day s.c.) it was 9.8 days; in data set [2] (50 mg/kg/day s.c.), 10.5 days; in [3] (3.1 mg/kg/day s.c.), 6.3 days; in [3] (12.5 mg/kg/day s.c.) it was 9.0 days; in data set [3] (50 mg/kg/day s.c.), 11.8 days. The “Percent Survival” value in data set [2] (3.1 mg/kg/day s.c.) turned out to be 6%; in [2] (12.5 mg/kg/day s.c.), 33%; in data set [2] (50 mg/kg/day s.c.), 36%; in data set [3] (3.1 mg/kg/day s.c.), 0%; in data set [3] (12.5 mg/kg/day s.c.), 26%; in data set [3] (50 mg/kg/day s.c.), 60%. In addition, in data set [2] (combined results of both mouse experiments), the “calculated average relative potency to acycloguanosine (95% CI)” value was 9.2. For the same molecule, the minimal effective concentration is 1 to 3 µg/mL in data set [4] and 3 to 6 µg/mL in data set [6]. This molecule also yielded a solubility in data set [5] of 3600 µg/mL. Moreover, the “converted to the triphosphate” value in [7] was found to be 55%.

With `Nc1nc2c(ncn2COC(CO)COP(=O)(O)O)c(=O)[nH]1` (stereo not drawn) [Compound of Formula II Monophosphate], in data set [8], the “relative efficiency as substrate (Vmax /Km) vs acycloguanosine monophosphate” value lay within 492 to 1 and the Vmax worked out at 7.1 µg/min/mg.

For the molecule `Nc1nc2c(ncn2[C@H]2C[C@H](O)[C@@H](COP(=O)(O)O)O2)c(=O)[nH]1` [Deoxyguanosine monophosphate, deoxyguanosine monophosphate, reference compound], the Vmax in data set [8] came out at 17.2 µg/min/mg.

Take `CCCCCCCC(=O)OCC(COC(=O)CCCCCCC)OCn1cnc2c(=O)[nH]c(N)nc21` [Example 11, 9-(1,3-Dioctanoyloxy-2-propoxymethyl)guanine]: the “inhibition of mycoplasmal growth” value in data set [9] was 75%.

Turning to `O=C(O)CP(=O)(O)O` [PAA, phosphonoacetic acid, reference compound], the “Sensitivity (S) or Resistance (R)” value is given as “S” in data set [10]; “S” in data set [11]; “R” in [12]; “R” in [13]; “S” in data set [14] (HSV-2 TS6); “S” in data set [15]. In [16], the “Sensitivity (S) or Resistance (R)” value was “R”. The “sensitivity of HSV-2 Ts6” value in data set [14] (HSV-2 Ts6) is recorded as “sensitive”.
